{"source": "patent US8481501B2", "about": "(priority 2004, dated 2013)", "key": {"delta opioid receptor [1]": {"target": "T1, delta opioid receptor (Homo sapiens, UniProt P41143)", "T1 sequence (P41143 whole entry)": "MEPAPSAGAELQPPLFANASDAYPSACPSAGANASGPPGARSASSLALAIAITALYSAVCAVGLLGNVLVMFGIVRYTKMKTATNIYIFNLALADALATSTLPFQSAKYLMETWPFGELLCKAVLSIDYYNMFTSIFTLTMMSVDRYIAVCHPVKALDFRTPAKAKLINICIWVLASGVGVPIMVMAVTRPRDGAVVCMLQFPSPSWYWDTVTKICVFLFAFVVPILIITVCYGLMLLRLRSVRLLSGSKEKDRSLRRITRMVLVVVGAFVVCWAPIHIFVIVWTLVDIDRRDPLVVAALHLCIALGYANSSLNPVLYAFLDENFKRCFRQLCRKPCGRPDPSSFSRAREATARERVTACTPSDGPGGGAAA", "assay": "biochemical", "type": "binding", "parameters": "expressed in transfected cells; host or cells: transfected cells"}, "kappa opioid receptor [2]": {"target": "T2, kappa opioid receptor (Homo sapiens, UniProt P41145)", "T2 sequence (P41145 whole entry)": "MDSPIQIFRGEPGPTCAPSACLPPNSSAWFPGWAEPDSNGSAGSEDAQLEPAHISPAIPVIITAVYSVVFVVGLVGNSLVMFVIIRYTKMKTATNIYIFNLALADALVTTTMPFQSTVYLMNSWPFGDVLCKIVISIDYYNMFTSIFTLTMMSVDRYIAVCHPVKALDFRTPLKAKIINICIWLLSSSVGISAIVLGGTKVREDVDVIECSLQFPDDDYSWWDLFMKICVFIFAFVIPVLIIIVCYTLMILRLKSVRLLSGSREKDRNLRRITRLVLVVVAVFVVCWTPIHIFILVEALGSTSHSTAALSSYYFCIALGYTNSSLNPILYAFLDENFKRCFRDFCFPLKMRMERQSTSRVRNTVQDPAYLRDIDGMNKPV", "assay": "biochemical", "type": "binding", "parameters": "expressed in transfected cells; host or cells: transfected cells"}, "[3]": {"assay": "Metabolic stability in mouse liver microsomes", "settings": "1.2 mg/mL MLM, 0.1 mM compound"}, "delta opioid receptor [4]": {"target": "T1, delta opioid receptor", "parameters": "expressed in transfected cells; host or cells: transfected cells", "settings": "Table 6, data from reference 6, cited from earlier work"}, "[5]": {"assay": "Chemical stability at pH 2.0 and pH 7.4, HPLC", "source_text": "The chemical stability of selected compounds were examined at pH 7.4 and pH 2.0. […] Then HPLC was used to analyze the decomposition of the starting material."}, "[6]": {"assay": "Metabolic stability in human liver pooled S9", "settings": "3.2 mg/mL HLS9, 0.1 mM compound"}, "delta opioid receptor [7]": {"target": "T1, delta opioid receptor", "assay": "Stimulation of [35S]GTPγS binding (coupling to G proteins)", "type": "biochemical", "parameters": "expressed in transfected cells; host or cells: transfected cells"}, "[8]": {"settings": "Penson et al.; cited from earlier work"}, "heroin-dependent rats": {"system": "heroin-dependent rats", "assay": "Heroin self-administration in heroin-dependent rats", "type": "in vivo, rat", "settings": "s.c. 15 mins prior to dark phase; doses 13e 0.04, 13g 0.2, M6G 0.04, 13h 0.01, 0.04, 0.2 mg/kg"}, "delta opioid receptor [9]": {"target": "T1, delta opioid receptor", "parameters": "expressed in transfected cells; host or cells: transfected cells", "settings": "read-out: Ki δ; Table 5; data taken from MacDougall et al.; cited from earlier work"}, "kappa opioid receptor [10]": {"target": "T2, kappa opioid receptor", "assay": "biochemical", "type": "biochemical", "parameters": "expressed in transfected cells; host or cells: transfected cells", "settings": "for EC50 / Emax: Table 8; for EC50: read-out: kappa EC50; for Emax: read-out: kappa % stimulation"}, "kappa opioid receptor [11]": {"target": "T2, kappa opioid receptor", "parameters": "expressed in transfected cells; host or cells: transfected cells", "settings": "read-out: Ki κ; Table 5; data taken from MacDougall et al.; cited from earlier work"}, "delta opioid receptor [12]": {"target": "T1, delta opioid receptor", "assay": "Ke at delta, CHO membranes", "type": "biochemical", "parameters": "expressed in transfected cells; host or cells: CHO", "settings": "Table 7, CHO membranes"}, "adult male rats": {"system": "adult male rats", "assay": "Precipitation of somatic signs of withdrawal after acute morphine", "type": "in vivo, rat", "settings": "s.c., 4 hr after morphine 5.0 mg/kg"}, "kappa opioid receptor [13]": {"target": "T2, kappa opioid receptor", "assay": "Ke at kappa, CHO membranes", "type": "biochemical", "parameters": "expressed in transfected cells; host or cells: CHO", "settings": "Table 7, CHO membranes"}, "[14]": {"settings": "Table 7, CHO membranes, read-out: Ki delta"}, "[15]": {"settings": "Table 7, CHO membranes, read-out: Ki kappa"}}, "note": "Where two headings read alike, the source gives them in different places."}
{"smiles": "CN1CCC23c4c5ccc(O)c4OC2C(OC2O[C@H](C(=O)O)[C@@H](O)[C@H](O)[C@H]2O)C=CC3C1C5", "note": "(some centres unmarked) [M6G, Morphine-6-glucuronide, reference compound]", "values": [{"measurement": "Ki", "setting": "delta opioid receptor [1]; Table 1, read-out: Ki δ", "result": "161 ± 0.73", "unit": "nM"}, {"measurement": "Ki", "setting": "kappa opioid receptor [2]; Table 1, read-out: Ki κ", "result": "4060 ± 230", "unit": "nM"}, {"measurement": "MLM t 1/2", "setting": "[3]", "result": "stable"}, {"measurement": "δ Emax", "setting": "delta opioid receptor [4]", "result": "80.0 ± 1.0"}, {"measurement": "EC50", "setting": "delta opioid receptor [4]; read-out: δ EC50", "result": "190 ± 20", "unit": "nM"}, {"measurement": "pH 2.0 t 1/2", "setting": "[5]; pH 2.0", "result": "stable"}, {"measurement": "pH 7.4 t 1/2", "setting": "[5]; pH 7.4", "result": "stable"}, {"measurement": "HLS9 t 1/2", "setting": "[6]", "result": "stable"}, {"measurement": "Emax", "setting": "delta opioid receptor [7]; Table 2", "result": 80, "unit": "%"}, {"measurement": "delta % stimulation", "setting": "delta opioid receptor [7]; Table 8", "result": "80.0 ± 1.0", "unit": "%"}, {"measurement": "EC50", "setting": "delta opioid receptor [7]; delta EC50, Table 2", "result": "190 ± 22.9", "unit": "nM"}, {"measurement": "EC50", "setting": "delta opioid receptor [7]; delta EC50, Table 8", "result": "190 ± 22.9", "unit": "nM"}, {"measurement": "oral bioavailability", "setting": "[8]", "result": 11, "unit": "%"}, {"measurement": "effect on heroin self-administration", "setting": "heroin-dependent rats", "result": "effective at reducing heroin self-administration"}, {"measurement": "Ki", "setting": "delta opioid receptor [9]", "result": "170 ± 1", "unit": "nM"}, {"measurement": "EC50", "setting": "kappa opioid receptor [10]", "result": "> 10000", "unit": "nM"}, {"measurement": "Ki", "setting": "kappa opioid receptor [11]", "result": "4.06 ± 0.23", "unit": "µM"}]}
{"smiles": "O=C(C[C@@H]1O[C@H](COCc2ccccc2)[C@@H](OCc2ccccc2)[C@H](OCc2ccccc2)[C@H]1OCc1ccccc1)NC1CC[C@@]2(O)[C@H]3Cc4ccc(O)c5c4[C@@]2(CCN3CC2CC2)[C@H]1O5", "note": "(stereo partly drawn) [compound 5, 6-acetamido-2,3,4,6-tetra-O-benzyl-D-glucopyranosyl-14-Hydroxy-17-(cyclopropylmethyl)nordesmorphine]", "values": [{"measurement": "Ke(other) (delta)", "setting": "delta opioid receptor [12]", "result": "10.35 ± 2.01"}, {"measurement": "Ki delta", "setting": "delta opioid receptor [1]; Table 7, CHO membranes", "result": "low affinity"}, {"measurement": "Ki", "setting": "delta opioid receptor [1]; [14]", "result": "140 ± 13.9", "unit": "nM"}, {"measurement": "Ki kappa", "setting": "kappa opioid receptor [2]; Table 7, CHO membranes", "result": "moderate affinity"}, {"measurement": "Ki", "setting": "kappa opioid receptor [2]; [15]", "result": "39 ± 6.3", "unit": "nM"}, {"measurement": "Emax", "setting": "delta opioid receptor [7]; Table 8", "result": 20.5, "unit": "%"}, {"measurement": "EC50", "setting": "delta opioid receptor [7]; Table 8, read-out: delta EC50", "result": 107, "unit": "nM"}, {"measurement": "Emax", "setting": "kappa opioid receptor [10]", "result": 45.5, "unit": "%"}, {"measurement": "EC50", "setting": "kappa opioid receptor [10]", "result": 10.8, "unit": "nM"}]}
{"smiles": "O=C(CC1OC(CO)C(O)C(O)C1O)NC1CCC2(O)C3Cc4ccc(O)c5c4C2(CCN3CC2CC2)C1O5", "note": "(centres unmarked) [6a, 14-Hydroxy-17-(cyclopropylmethyl)nordesmorphine-6-acetamidoglucose]", "values": [{"measurement": "Ki delta", "setting": "delta opioid receptor [1]; Table 7, CHO membranes", "result": "moderate affinity"}, {"measurement": "Ki", "setting": "delta opioid receptor [1]; [14]", "result": "91.3 ± 3.8", "unit": "nM"}, {"measurement": "Ki kappa", "setting": "kappa opioid receptor [2]; Table 7, CHO membranes", "result": "moderate affinity"}, {"measurement": "Ki", "setting": "kappa opioid receptor [2]; [15]", "result": "10.4 ± 2.8", "unit": "nM"}, {"measurement": "approximate EC50 for precipitation of somatic signs of withdrawal", "setting": "adult male rats", "result": "approximately 1 mg/kg"}, {"measurement": "Ke(other) (kappa)", "setting": "kappa opioid receptor [13]", "result": "13.39 ± 1.51"}, {"measurement": "Emax", "setting": "delta opioid receptor [7]; Table 8", "result": 43.1, "unit": "%"}, {"measurement": "EC50", "setting": "delta opioid receptor [7]; Table 8, read-out: delta EC50", "result": 90.9, "unit": "nM"}, {"measurement": "agonist/antagonist character at the delta receptor", "setting": "delta opioid receptor [7]; based on [35S]GTPγS binding", "result": "partial agonist"}, {"measurement": "Emax", "setting": "kappa opioid receptor [10]", "result": 11, "unit": "%"}, {"measurement": "EC50", "setting": "kappa opioid receptor [10]", "result": 11.2, "unit": "nM"}, {"measurement": "agonist/antagonist character at the kappa receptor", "setting": "kappa opioid receptor [10]; based on [35S]GTPγS binding", "result": "strong antagonist"}]}
